Data published in patent publication US11267822B2, “BET bromodomain protein degraders with cleavable linkers” (THE REGENTS OF THE UNIVERSITY OF MICHIGAN, priority 2017, dated 2022).
One block for each molecule: values may come before it.

Tests used:
BET protein = assay: Pharmacodynamic effect in RS4;11 tumor tissue in mice (BET protein degradation); assay type: in vivo; conditions: RS4;11 tumor-bearing mice, intravenous dosing at 10 mg/kg
Excerpt: FIG. 1 is an illustration showing the pharmacodynamic effect of Cpd. No. 15 in RS4;11 tumor tissue in mice.
FIG. 2 is an illustration showing the pharmacodynamic effect of Cpd. No. 16 in RS4;11 tumor tissue in mice.
The pharmacodynamic effect of Cpd. No. 15 and Cpd.

[1] = Pharmacokinetics in RS4;11 tumor-bearing mice (plasma and tumor concentrations); assay type: in vivo; conditions: for Cpd. No. 15 Concentration in plasma: IV 10 mg/kg Cpd. No. 15, RS4;11 tumor-bearing mice
Excerpt: The pharmacokinetics of Cpd. No. 15 in RS4;11 tumor-bearing mice show it is converted to Cpd. No. 52 in plasma and tumor tissue. BLOQ=below limit of detection; nd=not determined

MOLM13 = assay: Cell growth inhibition, CellTiter-Glo Luminescent Cell Viability Assay, MOLM13; assay type: cell-based; conditions: MOLM13 cells, 4 days
Procedure: (§1) Cell growth inhibitory activity of representative Compounds of the Disclosure was determined using the CellTiter-Glo® Luminescent Cell Viability Assay. Cells were seeded in 384-well white opaque cell culture plates at a density of 2,000 cells/well with serially diluted compounds and incubated at 37° C. in an atmosphere of 95% air and 5% CO2 for 4 days. Cell viability was determined using the CellTiter-Glo® Luminescent Cell Viability Assay Kit (Promega, Madison, Wis.) according to the manufacture's instruction. Briefly, a volume of CellTiter-Glo® Reagent equal to the volume of cell culture medium was added to each well, and then the plates were incubated at room temperature for 10-20 minutes. The luminescent signal was measured using a Tecan Infinite M1000 multimode microplate reader (Tecan, Morrisville, N.C.). The half maximal inhibitory concentration (IC50) in Table 3 was calculated using the GraphPad Prism 5 software (GraphPad Software, La Jolla, Calif.).

MDA-MB-231 = assay: Cell growth inhibition, CellTiter-Glo Luminescent Cell Viability Assay, MDA-MB-231; assay type: cell-based; conditions: MDA-MB-231 cells, 4 days
Procedure: as §1

SMILES: Cc1nnc2n1-c1sc(C#Cc3cnn(CCCC(=O)OCCCOc4cccc5c4CN(C4CCC(=O)NC4=O)C5=O)c3)c(Cc3ccccc3)c1COC2 (stereo not shown) [Cpd. No. 15, 3-((2-(2,6-dioxopiperidin-3-yl)-1-oxoisoindolin-4-yl)oxy)propyl 4-(4-((3-benzyl-9-methyl-4H,6H-thieno[2,3-e][1,2,4]triazolo[3,4-c][1,4]oxazepin-2-yl)ethynyl)-1H-pyrazol-1-yl)butanoate]
Pharmacodynamic effect: BET protein degradation in tumor tissue (BET protein): induce BET protein degradation in tumor tissue
Cpd. No. 15 Concentration in tumor ([1]; IV 10 mg/kg Cpd. No. 15, 1 h, Mouse 1 L tumor): BLOQ
Cpd. No. 15 Concentration in tumor ([1]; IV 10 mg/kg Cpd. No. 15, 1 h, Mouse 1 R tumor): BLOQ
Cpd. No. 15 Concentration in tumor ([1]; IV 10 mg/kg Cpd. No. 15, 1 h, Mouse 2 L tumor): BLOQ
Cpd. No. 15 Concentration in tumor ([1]; IV 10 mg/kg Cpd. No. 15, 1 h, Mouse 2 R tumor): BLOQ
Cpd. No. 15 Concentration in tumor ([1]; IV 10 mg/kg Cpd. No. 15, 3 h, Mouse 1 L tumor): BLOQ
Cpd. No. 15 Concentration in tumor ([1]; IV 10 mg/kg Cpd. No. 15, 3 h, Mouse 1 R tumor): BLOQ
Cpd. No. 15 Concentration in tumor ([1]; IV 10 mg/kg Cpd. No. 15, 3 h, Mouse 2 L tumor): BLOQ
Cpd. No. 15 Concentration in tumor ([1]; IV 10 mg/kg Cpd. No. 15, 3 h, Mouse 2 R tumor): BLOQ
Cpd. No. 15 Concentration in plasma ([1]; 1 h, mouse 1): BLOQ
Cpd. No. 15 Concentration in plasma ([1]; 1 h, mouse 2): BLOQ
Cpd. No. 15 Concentration in plasma ([1]; 3 h, mouse 1): BLOQ
Cpd. No. 15 Concentration in plasma ([1]; 3 h, mouse 2): BLOQ
Conversion (metabolism) in plasma and tumor tissue ([1]; RS4;11 tumor-bearing mice, IV 10 mg/kg): converted to Cpd. No. 52 in plasma and tumor tissue

SMILES: Cc1nnc2n1-c1sc(C#Cc3cnn(CCCC(=O)OCCC#Cc4cccc5c4CN(C4CCC(=O)NC4=O)C5=O)c3)c(Cc3ccccc3)c1COC2 (stereo not shown) [Cpd. No. 16, 4-(2-(2,6-dioxopiperidin-3-yl)-1-oxoisoindolin-4-yl)but-3-yn-1-yl 4-(4-((3-benzyl-9-methyl-4H,6H-thieno[2,3-e][1,2,4]triazolo[3,4-c][1,4]oxazepin-2-yl)ethynyl)-1H-pyrazol-1-yl)butanoate]
IC50 (MOLM13; Homo sapiens, MOLM-13, 96 h): 0.4 nM
IC50 (MOLM13): 0.2 nM
IC50 (MDA-MB-231; Homo sapiens, MDA-MB-231, 96 h): 1.5 nM
IC50 (MDA-MB-231): 0.9 nM
Pharmacodynamic effect: BET protein degradation in tumor tissue (BET protein): induce BET protein degradation in tumor tissue

SMILES: Cc1nnc2n1-c1sc(C#Cc3cnn(CC(=O)OCCCCc4cccc5c4CN(C4CCC(=O)NC4=O)C5=O)c3)c(Cc3ccccc3)c1COC2 (stereo not shown) [compound 34, 4-(2-(2,6-dioxopiperidin-3-yl)-1-oxoisoindolin-4-yl)butyl 2-(4-((3-benzyl-9-methyl-4H,6H-thieno[2,3-e][1,2,4]triazolo[3,4-c][1,4]oxazepin-2-yl)ethynyl)-1H-pyrazol-1-yl)acetate]
IC50 (MOLM13; Homo sapiens, MOLM-13, 96 h): 0.7 nM
IC50 (MDA-MB-231; Homo sapiens, MDA-MB-231, 96 h): 8.4 nM

SMILES: Cc1nnc2n1-c1sc(C#Cc3cnn(CC(=O)OCCCc4cccc5c4CN(C4CCC(=O)NC4=O)C5=O)c3)c(Cc3ccccc3)c1COC2 (stereo not shown) [compound 38, 3-(2-(2,6-dioxopiperidin-3-yl)-1-oxoisoindolin-4-yl)propyl 2-(4-((3-benzyl-9-methyl-4H,6H-thieno[2,3-e][1,2,4]triazolo[3,4-c][1,4]oxazepin-2-yl)ethynyl)-1H-pyrazol-1-yl)acetate]
IC50 (MOLM13; Homo sapiens, MOLM-13, 96 h): 22 nM
IC50 (MDA-MB-231; Homo sapiens, MDA-MB-231, 96 h): > 100 nM

Further lines, results first:

IC50 (MOLM13; Homo sapiens, MOLM-13, 96 h): 3.8 nM
IC50 (MDA-MB-231; Homo sapiens, MDA-MB-231, 96 h): 1.2 nM
SMILES: Cc1nnc2n1-c1sc(C#Cc3cnn(CCCC(=O)OCC#Cc4cccc5c4CN(C4CCC(=O)NC4=O)C5=O)c3)c(Cc3ccccc3)c1COC2 (stereo not shown) [compound 41, 3-(2-(2,6-dioxopiperidin-3-yl)-1-oxoisoindolin-4-yl)prop-2-yn-1-yl 4-(4-((3-benzyl-9-methyl-4H,6H-thieno[2,3-e][1,2,4]triazolo[3,4-c][1,4]oxazepin-2-yl)ethynyl)-1H-pyrazol-1-yl)butanoate]

IC50 (MOLM13; Homo sapiens, MOLM-13, 96 h): 5.5 nM
IC50 (MDA-MB-231; Homo sapiens, MDA-MB-231, 96 h): 4.9 nM
SMILES: Cc1nnc2n1-c1sc(C#Cc3ccc(CCCC(=O)OCCN4CCC(Nc5cccc6c5CN(C5CCC(=O)NC5=O)C6=O)CC4)nc3)c(Cc3ccccc3)c1COC2 (stereo not shown) [compound 42, 2-(4-((2-(2,6-dioxopiperidin-3-yl)-1-oxoisoindolin-4-yl)amino)piperidin-1-yl)ethyl 4-(5-((3-benzyl-9-methyl-4H,6H-thieno[2,3-e][1,2,4]triazolo[3,4-c][1,4]oxazepin-2-yl)ethynyl)pyridin-2-yl)butanoate]

IC50 (MOLM13; Homo sapiens, MOLM-13, 96 h): > 100 nM
IC50 (MDA-MB-231; Homo sapiens, MDA-MB-231, 96 h): > 100 nM
SMILES: Cc1nnc2n1-c1sc(C#Cc3ccc(CCCC(=O)OCCN4CCN(c5cccc6c5C(=O)N(C5CCC(=O)NC5=O)C6=O)CC4)nc3)c(Cc3ccccc3)c1COC2 (stereo not shown) [compound 43, 2-(4-(2-(2,6-dioxopiperidin-3-yl)-1,3-dioxoisoindolin-4-yl)piperazin-1-yl)ethyl 4-(5-((3-benzyl-9-methyl-4H,6H-thieno[2,3-e][1,2,4]triazolo[3,4-c][1,4]oxazepin-2-yl)ethynyl)pyridin-2-yl)butanoate]

IC50 (MOLM13; Homo sapiens, MOLM-13, 96 h): 4.3 nM
IC50 (MDA-MB-231; Homo sapiens, MDA-MB-231, 96 h): > 100 nM
SMILES: Cc1nnc2n1-c1sc(C#Cc3cnn(CCCC(=O)OCCN4CCN(c5cccc6c5C(=O)N(C5CCC(=O)NC5=O)C6=O)CC4)c3)c(Cc3ccccc3)c1COC2 (stereo not shown) [compound 44, 2-(4-(2-(2,6-dioxopiperidin-3-yl)-1,3-dioxoisoindolin-4-yl)piperazin-1-yl)ethyl 4-(4-((3-benzyl-9-methyl-4H,6H-thieno[2,3-e][1,2,4]triazolo[3,4-c][1,4]oxazepin-2-yl)ethynyl)-1H-pyrazol-1-yl)butanoate]
